Assay results: patent publication US20180127681A1, “GLYCOSYLATED AROMA- AND FRAGRANCE PRECURSORS AND FRAGRANCE PRODUCTS THAT CAN BE ACTIVATED” (Technische University Muenchen, priority 2015, published 2018)
Values joined by “and” are separate entries in the source; they are usually repeats but may differ in a detail not shown here. Identical values can stand only once.

Assays:
FaGTs1-13 = assay: In vitro glycosyltransferase assay with 14C UDP-glucose, substrates of FaGTs1-13; assay type: biochemical, Fragaria x ananassa; settings: FaGTs1-13, FIG. 11B, 1 h at 30° C.
Description: In the search for efficient biocatalysts which can be particularly used for the production of aroma glycosides the UGT gene family of plant species Vitis vinifera (grape vine) and Fragaria x ananassa (strawberry) was examined. For this at first the gene sequences were searched that are strongly expressed in the fruits of the plant species. These were subsequently isolated, expressed in the host organism Escherichia coli, and the enzymatic activity toward different potential substrates was determined. At least three of the coding nucleic acid sequences (FaGTs1-5, FaGTs1-13 and VvdGT13, see appended sequences) catalyze the formation of aroma glycosides very efficiently.
In FIG. 11 the determination of the enzyme activity of FaGTs1-5 and FaGTs1-13 is shown.
The reaction was started by adding UDP-glucose and stopped after incubation with 1 ml n-butanol. After vortexing for at least 15 s the reaction mixture was centrifuged 2 min at 12 000×g for separation of the phases, and 800 μl of the upper organic phase containing the product were now transferred to 2 ml scintillation cocktail (Ultima-Flo AF, PerkinElmer).

[1] = Baking test 2, simple yeast dough, release of geraniol by GC-MS; assay type: physicochemical
Experimental: (§1) As samples dough blanks of 10 g flour each were used. A negative control (flour, salt, sugar, yeast and water), three samples (additionally geranyl glucoside) and a recovery (addition of geraniol to the bread before freezing according to a postulated conversion of glucoside of 6% in order to determine losses during the analytical procedure) were used. Several process steps were carried out according to standardized specifications, separate for each of the five blanks.
For a blank/blind test (i) 9.98 g well-mixed flour were weighed into a glass vessel. 0.2 g NaCl and 0.1 g sucrose were added and the mixture was put in the kneader. An addition of 0.7 g (cooled) baking yeast directly to the kneader followed. The mixture was at first kneaded in a dry state for 1 min and kneaded for 8 min after pipetting 6.3 ml dist. H2O. All further steps including the work-up and sample taking ware carried out according to the sample with flour dough (1). In the samples (2a-c) 10 μl GG-solution were pipetted directly after the addition of water to the kneader. The preparation of the recovery (3) was carried out analogous to the blind sample. After cooling for one hour 170 μl geraniol solution were injected herein into the breadcrumb directly before freezing with liquid nitrogen.

[2] = Baking test 1, flour dough, release of geraniol by GC-MS; assay type: physicochemical; settings: for conversion of GG to geraniol, mean value: triplicate, from 3.2 μmol GG in 17 g bread
Description: Dough blanks of 10 g flour each were used as base. A negative control (flour, salt and water), three samples (added geranyl glucoside), a recovery (addition of geraniol to the bread prior to freezing according to a postulated conversion of glucoside of about 6% in order to determine the losses during the analytical process) and a control for geraniol in the glucoside solution (addition of an aliquot amount of glucoside only after the baking process to determine the content of geraniol). Several process steps are carried out according to standardized instructions, for each of the six blanks separately.
For a blank/blind test (1) 9.98 g well-mixed flour were weighed into a glass vessel and 0.2 g NaCl were added. The mixture was at first mixed in a dry state for 1 min in a farinograph (=kneader) and kneaded for 8 min after pipetting 6.4 ml dist. water. The dough was taken out quickly and weighed for a first time (E1). A first fermenting period of […] at 31° C. took place in a water vapor saturated proofing cabinet. After taking the dough out of the cabinet a second weighing (E2) took place as well as the homogenization. The ball-shaped blank was put into a round molder (“Rundwirker”) and turned for 10 turns with a superimposed pestle. It was drawn through a pasta/noodle roller, folded two times without inclusion of air and again turned in the round molder for 20 turns. Finally a forming by hand was performed. After the homogenization a second fermentation period of 35 min follows.
For samples (2a-c) additionally 10 μl of a geranyl glucoside (GG) solution (c=98 mg/ml) were quickly pipetted after the addition of water into the kneader.
Baking took place on a tray in the oven for 10 min at 230° C. Before and after putting the samples vapor was put into the closed oven, respectively (spraying and evaporating of 25 ml dist. H2O).
The baked bread was left standing for 60 min at room temperature and subsequently frozen in liquid nitrogen. Storage of the breads took place at −18° C. until the conditioning/preparation. […]

[3] = Baking tests, dough of three kinds of bread with 100 ppm geranyl glucoside (summary); assay type: physicochemical
Experimental: The proof-of-principle was now shown successfully for the example bread. Dough from three different kinds of bread was treated with the aroma precursor geranyl glucoside. […] This conversion is ascribed to the biggest extent to pyrolytic processes (about 5%) during the ten-minute baking process at 230° C. and partly on the enzyme-catalyzed hydrolytic processes (about […]) during the preparation of yeast-ß-glucosidase.

[4] = Baking test 3, standard yeast dough, release of geraniol by GC-MS; assay type: physicochemical
Experimental: as §1, with “fat, yeast, L-ascorbic acid” for “yeast”
For a blank/blind test (i) 9.98 g well-mixed flour were weighed into a glass vessel. 0.2 g NaCl and 0.1 g sucrose and 0.1 g palm fat were added and the mixture was put in the kneader. An addition of 0.7 g (cooled) baking yeast directly to the kneader followed. The mixture was at first kneaded in a dry state for 1 min and kneaded for 8 min after pipetting 6.0 ml dist. H2O and 0.3 ml ascorbic acid solution.
All further steps including the work-up and sample taking ware carried out according to the sample with flour dough (1). In the samples (2a-c) 10 μl GG-solution were pipetted directly after the addition of water and ascorbic acid solution to the kneader. The preparation of the recovery (3) was carried out analogous to the blind sample. After cooling for one hour 170 μl geraniol solution were injected herein into the breadcrumb directly before freezing with liquid nitrogen.

conversion relative to furaneol (FaGTs1-13) [times]	content of geraniol in the bread [1] [mg/kg]	conversion of GG to geraniol, mean value ([1]; samples 2a and 2c only, from 3.2 μmol GG in 17 g bread) [%]	content of geraniol in the baked bread [2] [mg/kg]	conversion of GG to geraniol, mean value [2] [%]	conversion of GG to geraniol, mean value ([2]; listed as GG)	content of geraniol in bread ([3]; 100 ppm added, conversion of 6%) [mg/kg]	conversion of glucoside to geraniol ([3]; addition of 100 ppm geranyl glucoside, ten-minute baking at 230° C.)	conversion ascribed to pyrolytic processes ([3]; ten-minute baking process at 230° C.)	content of geraniol in the bread [4] [mg/kg]	conversion of GG to geraniol, mean value ([4]; triplicate, from 3.2 μmol GG in 17 g bread) [%]	SMILES
3	–	–	–	–	–	–	–	–	–	–	CCC1OC(C)=C(O)C1=O (centres unmarked) [homofuraneol]
–	1.77	6.1	1.40	4.8	4.8% and 4.9%	1.7	about 6%	about 5%	1.67	5.7	CC(C)=CCC/C(C)=C/CO[C@@H]1O[C@H](CO)[C@@H](O)[C@H](O)[C@H]1O [geranyl glucoside]
